Legend:
[1] = target: T1, ER (Homo sapiens, UniProt P03372); experiment: ER reporter gene assay; assay type: cell-based; details: for Reporter Assay (% Activity) ER / inhibition of ER transactivation (in words): 10 μM compound; for Reporter Assay (% Activity) ER: 5 nM estradiol, 24 h, % of maximal luciferase activity (100%)
T1 sequence (P03372 1-595): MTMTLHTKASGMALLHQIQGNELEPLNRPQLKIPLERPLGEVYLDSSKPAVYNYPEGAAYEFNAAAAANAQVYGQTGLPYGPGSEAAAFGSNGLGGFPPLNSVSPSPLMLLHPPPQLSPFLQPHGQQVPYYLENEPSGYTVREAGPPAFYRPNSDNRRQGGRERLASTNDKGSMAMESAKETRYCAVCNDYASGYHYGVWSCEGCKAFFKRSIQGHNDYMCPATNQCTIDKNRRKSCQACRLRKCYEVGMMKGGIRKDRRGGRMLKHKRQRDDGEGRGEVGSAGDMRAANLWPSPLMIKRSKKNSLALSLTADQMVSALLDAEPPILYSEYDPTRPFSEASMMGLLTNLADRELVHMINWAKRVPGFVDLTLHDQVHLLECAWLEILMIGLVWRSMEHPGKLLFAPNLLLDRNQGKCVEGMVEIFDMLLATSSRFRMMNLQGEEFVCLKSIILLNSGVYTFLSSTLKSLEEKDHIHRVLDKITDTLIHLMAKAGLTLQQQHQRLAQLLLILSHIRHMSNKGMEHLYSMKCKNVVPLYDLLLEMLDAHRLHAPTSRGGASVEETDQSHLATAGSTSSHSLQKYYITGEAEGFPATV

[2] = target: T2, PR (Homo sapiens, UniProt P06401); experiment: PR reporter gene assay; assay type: cell-based; details: for inhibition of PR transactivation (in words): 10 μM compound
T2 sequence (P06401 165-933 limits assumed): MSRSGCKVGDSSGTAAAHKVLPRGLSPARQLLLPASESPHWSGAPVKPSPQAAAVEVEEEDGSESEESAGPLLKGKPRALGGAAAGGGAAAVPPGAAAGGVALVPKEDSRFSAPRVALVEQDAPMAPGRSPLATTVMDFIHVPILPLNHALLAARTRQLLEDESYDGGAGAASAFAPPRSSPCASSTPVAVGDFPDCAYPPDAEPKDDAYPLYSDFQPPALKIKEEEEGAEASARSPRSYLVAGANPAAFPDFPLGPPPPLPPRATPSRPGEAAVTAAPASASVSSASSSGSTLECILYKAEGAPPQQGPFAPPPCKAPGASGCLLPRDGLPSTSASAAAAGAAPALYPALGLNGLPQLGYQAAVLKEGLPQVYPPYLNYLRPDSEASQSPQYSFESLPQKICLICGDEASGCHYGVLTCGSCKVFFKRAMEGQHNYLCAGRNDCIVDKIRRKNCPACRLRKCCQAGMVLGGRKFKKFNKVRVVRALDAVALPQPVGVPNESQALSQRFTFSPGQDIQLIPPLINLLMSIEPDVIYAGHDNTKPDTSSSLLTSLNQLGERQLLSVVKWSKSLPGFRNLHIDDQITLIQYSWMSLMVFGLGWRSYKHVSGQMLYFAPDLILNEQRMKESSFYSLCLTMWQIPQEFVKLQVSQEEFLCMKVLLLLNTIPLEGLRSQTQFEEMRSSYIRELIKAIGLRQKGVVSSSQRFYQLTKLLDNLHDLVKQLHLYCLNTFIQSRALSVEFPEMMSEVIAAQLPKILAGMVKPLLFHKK

[3] = target: T3, AR (Homo sapiens, UniProt P10275); experiment: AR reporter gene assay; assay type: cell-based; details: 10 μM compound
T3 sequence (P10275 1-920): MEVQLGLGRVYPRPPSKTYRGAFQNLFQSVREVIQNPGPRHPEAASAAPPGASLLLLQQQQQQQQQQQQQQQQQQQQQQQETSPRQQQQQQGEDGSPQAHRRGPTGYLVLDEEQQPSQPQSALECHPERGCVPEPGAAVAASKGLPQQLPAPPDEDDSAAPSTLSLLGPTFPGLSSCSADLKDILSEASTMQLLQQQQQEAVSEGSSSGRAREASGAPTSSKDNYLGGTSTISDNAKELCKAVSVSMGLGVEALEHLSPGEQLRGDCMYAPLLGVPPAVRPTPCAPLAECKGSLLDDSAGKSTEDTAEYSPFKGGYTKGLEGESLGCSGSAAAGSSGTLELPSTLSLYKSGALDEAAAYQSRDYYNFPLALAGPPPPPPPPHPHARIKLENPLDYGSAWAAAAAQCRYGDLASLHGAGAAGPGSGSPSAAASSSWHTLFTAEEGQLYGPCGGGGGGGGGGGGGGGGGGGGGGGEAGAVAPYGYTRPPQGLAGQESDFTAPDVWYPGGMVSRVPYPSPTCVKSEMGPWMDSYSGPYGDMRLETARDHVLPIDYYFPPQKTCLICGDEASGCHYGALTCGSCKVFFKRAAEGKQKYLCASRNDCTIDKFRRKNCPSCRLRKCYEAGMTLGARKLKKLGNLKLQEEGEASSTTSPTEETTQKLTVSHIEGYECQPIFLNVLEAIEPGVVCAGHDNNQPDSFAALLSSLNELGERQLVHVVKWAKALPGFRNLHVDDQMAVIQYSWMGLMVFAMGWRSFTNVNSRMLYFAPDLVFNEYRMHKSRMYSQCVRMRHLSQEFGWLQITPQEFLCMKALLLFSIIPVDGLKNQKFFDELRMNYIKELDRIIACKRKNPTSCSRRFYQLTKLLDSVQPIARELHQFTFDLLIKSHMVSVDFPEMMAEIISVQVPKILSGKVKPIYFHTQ

[4] = target: T4, GR (Rattus norvegicus, UniProt P06536); experiment: GR reporter gene assay; assay type: cell-based, human; details: 10 μM compound
T4 sequence (P06536 1-795): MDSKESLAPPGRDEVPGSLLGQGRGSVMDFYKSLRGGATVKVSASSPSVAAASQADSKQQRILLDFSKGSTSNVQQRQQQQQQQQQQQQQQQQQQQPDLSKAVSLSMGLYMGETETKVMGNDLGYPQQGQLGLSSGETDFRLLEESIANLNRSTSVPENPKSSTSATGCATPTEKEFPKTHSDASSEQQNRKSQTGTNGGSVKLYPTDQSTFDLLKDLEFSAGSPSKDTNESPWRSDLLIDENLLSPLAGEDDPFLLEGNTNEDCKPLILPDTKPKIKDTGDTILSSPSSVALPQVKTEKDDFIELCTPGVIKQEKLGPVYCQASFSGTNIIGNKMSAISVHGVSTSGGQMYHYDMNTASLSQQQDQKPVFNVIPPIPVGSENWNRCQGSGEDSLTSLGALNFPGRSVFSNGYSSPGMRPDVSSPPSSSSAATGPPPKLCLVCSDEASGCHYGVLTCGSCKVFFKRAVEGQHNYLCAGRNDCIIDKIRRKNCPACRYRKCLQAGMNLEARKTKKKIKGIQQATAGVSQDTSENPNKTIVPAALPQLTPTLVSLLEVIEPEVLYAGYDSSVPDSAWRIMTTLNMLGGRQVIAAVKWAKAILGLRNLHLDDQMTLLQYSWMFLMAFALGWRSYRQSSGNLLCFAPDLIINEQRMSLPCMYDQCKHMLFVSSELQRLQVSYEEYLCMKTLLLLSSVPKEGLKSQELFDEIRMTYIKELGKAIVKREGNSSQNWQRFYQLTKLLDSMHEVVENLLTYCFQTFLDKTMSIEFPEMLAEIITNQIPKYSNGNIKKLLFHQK

[5] = tested on: pS2 mRNA; experiment: qRT-PCR of 17β-estradiol-induced pS2 mRNA; assay type: cell-based; details: 2 hours; compound 51 at 5 μM

Row | Reporter Assay (% Activity) ER [1] [%] | SMILES | further results
1 | 104 | Cn1c(=O)c2[nH]c(SCc3ccccc3)nc2n(C)c1=O [Compound 8] | 
2 | 94 | Cn1c(=O)c2[nH]c(Cc3ccccc3)nc2n(C)c1=O [Compound 4] | 
3 | 106 | CCc1nc2c([nH]1)c(=O)n(C)c(=O)n2C [Compound 2] | 
4 | 111 | CCCSc1nc2c([nH]1)c(=O)n(C)c(=O)n2C [Compound 7] | 
5 |  | Cn1c(=O)c2[nH]cnc2n(C)c1=O [Compound 1, Theophylline, reference compound] | inhibition of PR transactivation (in words) [2]: did not inhibit; activity at 10 µM ([2]; T47D, read-out: Reporter Assay (% Activity) PR): 105%; inhibition of ER transactivation (in words) [1]: did not inhibit; activity at 10 µM ([1]; read-out: Reporter Assay (% Activity) ER): 93%
6 | 79 | CCCSc1nc2c([nH]1)c(=S)n(C)c(=S)n2C [Compound 19] | 
7 | 101 | CSc1nc2c([nH]1)c(=S)n(C)c(=S)n2C [Compound 13] | 
8 | 88 | CCCCc1nc2c([nH]1)c(=O)n(C)c(=O)n2C [Compound 3] | 
9 | 109 | CCCCCCCCCCSc1nc2c([nH]1)c(=O)n(C)c(=O)n2C [Compound 37] | 
10 |  | C[C@]12CC[C@@H]3c4ccc(O)cc4C[C@@H](CCCCCCCCC[S+]([O-])CCCC(F)(F)C(F)(F)F)[C@H]3[C@@H]1CC[C@@H]2O (stereo partly shown) [ICI 182,780, reference compound] | effect on 17β-estradiol induction of pS2 mRNA [5]: inhibited induction of pS2 mRNA
11 | 6 | CSc1nc2c([nH]1)c(=O)n(C)c(=O)n2C [Compound 10] | 

Row | SMILES | Reporter Assay (% Activity) ER [1] [%] | further results
12 | CCCC(C)Sc1nc2c([nH]1)c(=S)n(C)c(=O)n2C (stereo not shown) [Compound 45] | 94 | inhibition of PR transactivation (in words) [2]: moderately potent inhibitors; inhibition of ER transactivation (in words) [1]: no activity; inhibition of AR transactivation (in words) [3]: no activity; inhibition of GR transactivation (in words) [4]: no activity

Source: article PMC3384716 (Steroids, 2012)
